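These data come from cells grown in 96-well plates and exposed to compound for 48 hours at five concentrations. TGI denotes the concentration required for complete inhibition of growth.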

Test systems include SF-268 CNS; HCC-2998 colon; MOLT-4 leukemia; HCT-116 colon; COLO 205 colon; SN12C renal; HOP-92 NSCLC; ACHN renal; SK-MEL-5 melanoma; SNB-19 CNS; MDA-N; OVCAR-5 ovarian; MDA-MB-435.
What all share (assay): NCI anticancer screen, dose series, 48 h

With `CC1CN=C(N(Cc2ccccc2)C(=O)Nc2ccc(Cl)c(Cl)c2)S1` (stereo unspecified), the TGI was over 100 µM in the assay on SF-268 CNS; over 10 µM with HCC-2998 colon; over 10 µM with MOLT-4 leukemia; over 100 µM with HCT-116 colon; over 100 µM in the assay with COLO 205 colon; 69.3 µM in the assay with SN12C renal. Further, the TGI with HOP-92 NSCLC was 54.5 µM; in the assay with ACHN renal, 75 µM; with SK-MEL-5 melanoma, 51.9 µM; with SNB-19 CNS, over 100 µM; in the assay on MDA-N, over 100 µM; in the assay with OVCAR-5 ovarian it was over 100 µM.
For `COc1cc(O)c2c(=O)c(O)c(-c3ccc(O)c(OC)c3)oc2c1`, the TGI in the assay with SF-268 CNS was over 100 µM; in the assay on HCC-2998 colon it was over 100 µM; in the assay on MOLT-4 leukemia, over 25 µM; in the assay on HCT-116 colon, over 100 µM; with COLO 205 colon, over 86 µM; in the assay on SN12C renal it was over 100 µM. In addition, the TGI in the assay with SK-MEL-5 melanoma is over 34.9 µM; in the assay with SNB-19 CNS, over 100 µM; with MDA-N it was over 100 µM; in the assay on OVCAR-5 ovarian, over 100 µM.
`C/C=C/C#CC#C/C=C/C=C/C(O)CCO` (stereo unspecified): the TGI in the assay with SF-268 CNS, in the assay with HCC-2998 colon, in the assay with MOLT-4 leukemia, in the assay on HCT-116 colon, in the assay on COLO 205 colon and in the assay on SN12C renal was over 23.1 µM throughout. The TGI with HOP-92 NSCLC, in the assay with ACHN renal, with SK-MEL-5 melanoma, with SNB-19 CNS and in the assay with OVCAR-5 ovarian was over 23.1 µM in each case.
For the compound `Nc1c([N+](=O)[O-])nc(Cl)c2nncn12`, the TGI in the assay on SF-268 CNS was over 100 µM; in the assay with HCC-2998 colon, over 100 µM; in the assay with MOLT-4 leukemia, over 100 µM; with HCT-116 colon it was over 63.9 µM; in the assay with COLO 205 colon, over 65 µM; with SN12C renal, over 100 µM. The TGI in the assay with HOP-92 NSCLC, in the assay with ACHN renal, in the assay on SK-MEL-5 melanoma, with SNB-19 CNS and in the assay with OVCAR-5 ovarian was over 100 µM in each case.
`COc1ccc(/C=N/n2c(C)n[nH]c2=O)c(OC)c1`: the TGI in the assay on SF-268 CNS, in the assay with HCC-2998 colon, in the assay on MDA-MB-435, in the assay on MOLT-4 leukemia, with HCT-116 colon and in the assay on COLO 205 colon was over 100 µM throughout. Besides, the TGI in the assay with SN12C renal, in the assay on ACHN renal, with SNB-19 CNS, in the assay on MDA-N and in the assay with OVCAR-5 ovarian was over 100 µM throughout.
As to `COc1c(=O)cc2cc[nH]c3ccn(C)c1c23`, the TGI in the assay on SF-268 CNS, with HCC-2998 colon, in the assay with MDA-MB-435, in the assay with MOLT-4 leukemia, in the assay on HCT-116 colon and with COLO 205 colon was over 100 µM each time. Besides, the TGI in the assay on SN12C renal, with ACHN renal, in the assay with SNB-19 CNS, in the assay with MDA-N and with OVCAR-5 ovarian was over 100 µM throughout.
In the case of `CN(C)C(=NCc1ccccc1)NC#N`, the TGI in the assay with SF-268 CNS, with HCC-2998 colon, with HCT-116 colon, in the assay with COLO 205 colon, with SN12C renal and in the assay on HOP-92 NSCLC was over 100 µM each time. Besides, the TGI with ACHN renal, in the assay on SK-MEL-5 melanoma and in the assay with SNB-19 CNS was over 100 µM throughout.
Turning to `[N-]=[N+]=NI1OC(=O)c2ccccc21`, the TGI in the assay with SF-268 CNS, in the assay on HCC-2998 colon, in the assay on MDA-MB-435, in the assay on MOLT-4 leukemia, in the assay on HCT-116 colon and with COLO 205 colon was over 100 µM in each case. Besides, the TGI in the assay on SN12C renal, in the assay with HOP-92 NSCLC, in the assay on ACHN renal, in the assay on SNB-19 CNS and in the assay on OVCAR-5 ovarian was over 100 µM each time.
For `C/C(=C\CBr)CCC(Br)C(C)(C)Cl` (stereo unspecified), the TGI in the assay on SF-268 CNS, with MOLT-4 leukemia, with HCT-116 colon, with COLO 205 colon, in the assay with SN12C renal and with HOP-92 NSCLC was over 100 µM throughout. Besides, the TGI in the assay on ACHN renal, in the assay on SK-MEL-5 melanoma and in the assay on OVCAR-5 ovarian was over 100 µM throughout.
In the case of `NNC(=O)c1c(-c2cccnc2)cnc2ccccc12`, the TGI in the assay with SF-268 CNS, in the assay with HCC-2998 colon, in the assay on MOLT-4 leukemia, with HCT-116 colon, in the assay on COLO 205 colon and in the assay with SN12C renal was over 100 µM in each case. Further, the TGI with HOP-92 NSCLC, in the assay on ACHN renal, in the assay with SK-MEL-5 melanoma, in the assay with SNB-19 CNS, in the assay with MDA-N and in the assay on OVCAR-5 ovarian was over 100 µM each time.
Consider `Oc1ccc2cc(Br)ccc2c1-c1c(O)ccc2ccc(Br)cc12`, for which the TGI in the assay with SF-268 CNS came to 41.1 µM; in the assay on HCC-2998 colon it was 19.5 µM; in the assay on MDA-MB-435, 31.1 µM; in the assay on MOLT-4 leukemia, 20.4 µM; in the assay on HCT-116 colon, 27.4 µM; in the assay with COLO 205 colon, 26.5 µM. For the same compound, the TGI with SN12C renal worked out at 24.3 µM; with ACHN renal it was 28 µM; in the assay with SK-MEL-5 melanoma, 37.5 µM; in the assay with SNB-19 CNS, 29.3 µM; in the assay on MDA-N it was 24.6 µM; with OVCAR-5 ovarian it was 30.8 µM.
Regarding `O=C(/C=C/c1ccccc1)Oc1ccc(C(=O)/C=C/c2ccc(Cl)cc2)cc1`, the TGI with SF-268 CNS, with HCC-2998 colon, with MDA-MB-435, in the assay on MOLT-4 leukemia, in the assay with HCT-116 colon and in the assay on COLO 205 colon was over 100 µM in each case. For the same compound, the TGI in the assay with SN12C renal, with ACHN renal, in the assay with SK-MEL-5 melanoma, in the assay on SNB-19 CNS, with MDA-N and with OVCAR-5 ovarian was over 100 µM throughout.

The record behind these values is PubChem BioAssay (NCI).
